# Data as given in patent publication US4582821A, “Inhibition of cyclic nucleotide independent protein kinases” (E. I. Du Pont de Nemours and Company, priority 1983, dated 1986).
# Peptide text beside a SMILES is read from it. * marks the point of attachment. Cbz = O=C(OCc1ccccc1)*; CH2Cl = ClC*
# Experiments:
# [1] = biological target: T1, A-431 cell EGF receptor (Homo sapiens, UniProt P00533); experiment: Protein phosphorylation of A-431 cell membrane EGF receptors (intact membranes, EGF present); assay type: biochemical; conditions: 600 nmoles/mg protein, intact A-431 membranes
# T1 construct: intact A-431 cell membranes were employed, rather than solubilized extracts; endogenous in cells; host or cells: A-431 human epidermoid carcinoma cells (plasma membranes)
# T1 sequence (P00533 25-1210): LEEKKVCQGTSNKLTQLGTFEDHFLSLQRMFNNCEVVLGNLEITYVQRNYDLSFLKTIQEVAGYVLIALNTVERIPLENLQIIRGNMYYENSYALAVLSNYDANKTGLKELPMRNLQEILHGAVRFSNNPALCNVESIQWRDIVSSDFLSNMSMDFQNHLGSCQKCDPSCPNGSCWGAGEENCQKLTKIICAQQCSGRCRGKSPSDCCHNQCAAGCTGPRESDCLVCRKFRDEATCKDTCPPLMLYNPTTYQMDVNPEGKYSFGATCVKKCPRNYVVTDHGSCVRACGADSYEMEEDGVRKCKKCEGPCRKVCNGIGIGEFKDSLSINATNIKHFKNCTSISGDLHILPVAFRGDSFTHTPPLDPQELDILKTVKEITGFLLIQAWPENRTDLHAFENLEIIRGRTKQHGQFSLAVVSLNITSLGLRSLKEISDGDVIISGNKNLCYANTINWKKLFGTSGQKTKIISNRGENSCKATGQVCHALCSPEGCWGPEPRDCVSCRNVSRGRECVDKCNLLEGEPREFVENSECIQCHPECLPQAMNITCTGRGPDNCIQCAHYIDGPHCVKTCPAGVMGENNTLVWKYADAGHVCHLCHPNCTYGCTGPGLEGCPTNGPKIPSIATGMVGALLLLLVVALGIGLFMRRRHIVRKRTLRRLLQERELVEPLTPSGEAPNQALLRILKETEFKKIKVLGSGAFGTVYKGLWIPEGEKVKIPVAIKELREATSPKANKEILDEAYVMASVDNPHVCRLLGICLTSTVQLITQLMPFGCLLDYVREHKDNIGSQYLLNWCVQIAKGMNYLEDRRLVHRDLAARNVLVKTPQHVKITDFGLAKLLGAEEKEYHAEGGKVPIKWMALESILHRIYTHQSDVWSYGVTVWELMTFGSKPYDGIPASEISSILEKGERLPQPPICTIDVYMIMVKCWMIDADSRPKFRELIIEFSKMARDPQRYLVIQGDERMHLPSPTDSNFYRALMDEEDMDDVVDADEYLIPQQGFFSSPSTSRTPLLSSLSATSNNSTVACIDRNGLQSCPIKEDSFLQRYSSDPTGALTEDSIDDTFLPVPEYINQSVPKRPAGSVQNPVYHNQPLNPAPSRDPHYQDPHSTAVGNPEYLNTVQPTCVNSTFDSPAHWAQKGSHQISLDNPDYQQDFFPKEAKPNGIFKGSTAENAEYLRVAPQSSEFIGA
# Experimental: (§1) Protein phosphorylation assays were conducted substantially as described by Carpenter et al., J. Biol. Chem. 254:4884 (1979). Each assay mixture contained, in a final volume of 70 μL: 20 mM Hepes, pH 7.4, 0.01% bovine serum albumin (BSA), 15-150 μg protein in Triton extract, 100 ng EGF, 1 mM MnCl2 and 10-20 μM [γ-^32 P] ATP (2-4 μCi). Peptide halomethyl ketones were added as solutions in ethanol; an equivalent volume of ethanol was added to controls. Assay mixtures were incubated at about 23° for ten minutes, with or without added EGF. Mixtures were then held at 0° for ten minutes before initiation of phosphorylation by addition of 15 μM γ-^32 P) ATP (2 μCi). Reactions were terminated after 3 minutes at 0° by applying an aliquot of the assay mixture to a Whatman 3MM filter paper (2×2 cm), which was then suspended in ice-cold 10% trichloroacetic acid containing 10 mM pyrophosphate. This suspension was gently shaken for a period of 1 hour, during which the trichloroacetic acid/pyrophosphate mixture was changed three times. Finally, the filter papers were dried and radioactivity measured by scintillation counting.
# Assays were conducted substantially as described above, except intact A-431 cell membranes were employed, rather than solubilized extracts, and assay mixtures contained 1 mM ouabain. In these Examples, reactions were permitted to proceed for 6 minutes. This technique is substantially similar to that disclosed by Navarro et al., Biochemistry, 21:6138 (1982).
# [2] = tested on: lymphoma cell line MOLT-4; experiment: Tumor cell line growth inhibition, MOLT-4; assay type: cell-based
# Experimental: (§2) In this series of experiments, the tumor cell growth inhibitory capacity of various peptide halomethyl ketones was tested against lymphoma cell lines YAC-1 and MOLT-4, and against an erythroleukemia cell line, K-562. The lymphoma cell line YAC-1 is described by Kiessling, et al., Eur. J. Immunol. 5:112 (1975), and MOLT-4 is described by Minowada, et al., J. Natl. Cancer Inst. 49:891 (1972) and Nilsson, et al., Int. J. Cancer 15:321 (1975). The erythroleukemia cell line K-562 is described by Lozzio, et al., Leuk. Res. 3:363 (1979). In these experiments, cells were grown on standard media as 10 mL suspension cultures. Initial cell density was 10^5 cells/mL. At day 0, test compounds were introduced in ethanol; control cultures received an equal volume of ethanol. Cells were counted at the times indicated.
# [3] = tested on: A-431 plasma membrane extracts (EGF-mediated protein phosphorylation); experiment: Protein phosphorylation in solubilized A-431 plasma membrane extracts, with or without EGF; assay type: biochemical, human; conditions: 477 nmol/mg protein; for EGF Added (pmol 32P incorporated/min/mg protein): control 96.2; for No EGF Added (pmol 32P incorporated/min/mg protein): control 21.6
# Experimental: The capacity of certain peptide halomethyl ketones to inhibit protein phosphorylation is illustrated by Examples 1-8, below, in which solubilized plasma membranes prepared from A-431 human epidermoid carcinoma cells were incubated with [γ-^32 P] ATP in the presence of EGF.
# A-431 human epidermoid carcinoma cells were grown in Dulbecco's modified Eagle's medium containing 5% fetal calf serum. Plasma membranes were isolated by a method substantially similar to that described by Thom et al., Biochem J. 168:187 (1977), and kept at -70°. Solubilization of plasma membranes was performed substantially as described by Cohen et al., J. Biol. Chem. 255:4834 (1980). In this procedure, 7.5 mg/mL protein was solubilized with 5% Triton X-100 (octylphenol), 10% glycerol, and 20 mM Hepes buffer (N-2-hydroxyethylpiperazine-N^1 -2-ethanesulfonic acid), pH 7.4. This mixture was incubated for 20 minutes at about 23°, followed by centrifugation at 100,000 xg for 60 minutes.
# as §1
# [4] = tested on: erythroleukemia cell line K-562; experiment: Tumor cell line growth inhibition, K-562; assay type: cell-based
# Experimental: as §2
# [5] = tested on: lymphoma cell line YAC-1; experiment: Tumor cell line growth inhibition, YAC-1; assay type: cell-based
# Experimental: as §2
% inhibition [1],SMILES,"% Growth Relative to Control Cultures ([2]; 0.4 μg/mL, day 1)","% Growth Relative to Control Cultures ([2]; 0.4 μg/mL, day 2)","% Growth Relative to Control Cultures ([2]; 0.4 μg/mL, day 3)","% Growth Relative to Control Cultures ([2]; 2.0 μg/mL, day 1)","% Growth Relative to Control Cultures ([2]; 2.0 μg/mL, day 2)","% Growth Relative to Control Cultures ([2]; 2.0 μg/mL, day 3)","% Growth Relative to Control Cultures ([2]; 2.0 μg/mL, day 4)","% Growth Relative to Control Cultures ([2]; 10. μg/mL, day 2)","% Growth Relative to Control Cultures ([2]; 10. μg/mL, day 3)","% Growth Relative to Control Cultures ([2]; 10. μg/mL, day 4)","% Growth Relative to Control Cultures ([2]; 10. μg/mL, day 7)","% Growth Relative to Control Cultures ([4]; 2.0 μg/mL, day 1)","% Growth Relative to Control Cultures ([4]; 2.0 μg/mL, day 2)","% Growth Relative to Control Cultures ([4]; 2.0 μg/mL, day 3)","% Growth Relative to Control Cultures ([4]; 2.0 μg/mL, day 4)","% Growth Relative to Control Cultures ([4]; 10. μg/mL, day 2)","% Growth Relative to Control Cultures ([4]; 10. μg/mL, day 3)","% Growth Relative to Control Cultures ([4]; 10. μg/mL, day 4)","% Growth Relative to Control Cultures ([4]; 10. μg/mL, day 7)",also measured
7%,CC(C)C[C@H](NC(=O)OC(C)(C)C)C(=O)CCl [Boc-LeuCH2 Cl],73%,86%,73%,47%,28%,10%,11%,38%,3%,3%,4%,17%,31%,8%,15%,17%,3%,6%,3%,"% Growth Relative to Control Cultures ([2]; 0.4 μg/mL, day 7): 86%; % Growth Relative to Control Cultures ([2]; 2.0 μg/mL, day 7): 63%; % inhibition, EGF Added [3]: 28%; EGF Added (pmol 32P incorporated/min/mg protein) [3]: 69.0 pmol^32 P incorporated/min/mg; % inhibition, No EGF Added [3]: 48%; No EGF Added (pmol 32P incorporated/min/mg protein) [3]: 11.3 pmol^32 P incorporated/min/mg; % Growth Relative to Control Cultures ([4]; 0.4 μg/mL, day 1): 47%; % Growth Relative to Control Cultures ([4]; 0.4 μg/mL, day 3): 53%; % Growth Relative to Control Cultures ([4]; 2.0 μg/mL, day 7): 37%; % Growth Relative to Control Cultures ([4]; 10. μg/mL, day 1): 8%"
34%,CC(C)(C)OC(=O)N[C@@H](Cc1ccc(O)cc1)C(=O)CCl [Boc-TyrCH2 Cl],80%,,85%,56%,31%,17%,16%,19%,8%,3%,0%,81%,23%,15%,19%,7%,2%,2%,0%,"% Growth Relative to Control Cultures ([2]; 0.4 μg/mL, day 4): 69%; % Growth Relative to Control Cultures ([2]; 2.0 μg/mL, day 7): 31%; % Growth Relative to Control Cultures ([2]; 10. μg/mL, day 1): 39%; % inhibition, EGF Added [3]: 45%; EGF Added (pmol 32P incorporated/min/mg protein) [3]: 53.0 pmol^32 P incorporated/min/mg; % inhibition, No EGF Added [3]: 64%; No EGF Added (pmol 32P incorporated/min/mg protein) [3]: 7.8 pmol^32 P incorporated/min/mg; % Growth Relative to Control Cultures ([4]; 2.0 μg/mL, day 7): 44%; % Growth Relative to Control Cultures ([4]; 10. μg/mL, day 1): 64%"
54%,"CC(C)C[C@H](NC(=O)[C@H](CO)NC(=O)CNC(=O)[C@H](Cc1ccccc1)NC(=O)OCc1ccccc1)C(=O)CCl [Z--Phe-Gly-Ser-LeuCH2 Cl, Z-Phe-Gly-Ser-LeuCH2 Cl] (Cbz-FGSL-CH2Cl)",77%,40%,,42%,27%,87%,74%,17%,76%,29%,49%,66%,13%,38%,40%,14%,17%,20%,65%,"% Growth Relative to Control Cultures ([2]; 10. μg/mL, day 1): 38%; % Growth Relative to Control Cultures ([5]; 0.4 μg/mL, day 2): 63%; % Growth Relative to Control Cultures ([5]; 0.4 μg/mL, day 3): 68%; % Growth Relative to Control Cultures ([5]; 0.4 μg/mL, day 4): 74%; % Growth Relative to Control Cultures ([5]; 0.4 μg/mL, day 7): 61%; % Growth Relative to Control Cultures ([5]; 2.0 μg/mL, day 2): 80%; % Growth Relative to Control Cultures ([5]; 2.0 μg/mL, day 3): 60%; % Growth Relative to Control Cultures ([5]; 2.0 μg/mL, day 4): 66%; % Growth Relative to Control Cultures ([5]; 2.0 μg/mL, day 7): 75%; % Growth Relative to Control Cultures ([5]; 10. μg/mL, day 1): 62%; % Growth Relative to Control Cultures ([5]; 10. μg/mL, day 2): 40%; % Growth Relative to Control Cultures ([5]; 10. μg/mL, day 4): 40%; % Growth Relative to Control Cultures ([5]; 10. μg/mL, day 7): 64%; % Growth Relative to Control Cultures ([4]; 0.4 μg/mL, day 2): 28%; % Growth Relative to Control Cultures ([4]; 0.4 μg/mL, day 3): 27%; % Growth Relative to Control Cultures ([4]; 0.4 μg/mL, day 4): 49%; % Growth Relative to Control Cultures ([4]; 0.4 μg/mL, day 7): 81%"
